The values below come from US9962420B2, “Compositions and methods for treating diabetes, fatty liver, cardiopathies, insulin resistance, carbohydrate and fat metabolism” (VALBIOTIS, priority 2014, dated 2018).

Where two headings read alike, the source gives them in different places.

Data set [1] deals with T1, HMG-CoA reductase (Catalytic domain of the human enzyme, recombinant GST fusion protein expressed in E. Coli) (Homo sapiens, UniProt P04035).
T1 construct: (Catalytic domain of); GST; purchased Sigma
T1 sequence (P04035 340-888 limits assumed): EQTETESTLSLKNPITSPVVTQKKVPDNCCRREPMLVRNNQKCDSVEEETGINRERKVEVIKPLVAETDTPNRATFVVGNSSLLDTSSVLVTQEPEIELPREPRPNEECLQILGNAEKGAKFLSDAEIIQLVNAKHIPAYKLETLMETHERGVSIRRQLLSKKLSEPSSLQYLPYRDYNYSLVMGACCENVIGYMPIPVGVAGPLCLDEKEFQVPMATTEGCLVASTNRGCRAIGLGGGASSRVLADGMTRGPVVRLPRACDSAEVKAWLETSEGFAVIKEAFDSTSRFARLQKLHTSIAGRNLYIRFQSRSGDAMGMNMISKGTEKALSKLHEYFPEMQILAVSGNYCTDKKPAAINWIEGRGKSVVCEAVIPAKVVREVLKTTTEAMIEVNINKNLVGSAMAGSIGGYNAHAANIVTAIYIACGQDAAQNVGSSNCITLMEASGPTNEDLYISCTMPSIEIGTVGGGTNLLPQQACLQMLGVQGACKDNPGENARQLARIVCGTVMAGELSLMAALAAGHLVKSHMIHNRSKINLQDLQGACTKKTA
The data set can be described thus: Test of inhibition of HMG-CoA reductase. The class given is biochemical. As to conditions: concentration of sample set at 60 μg/mL.
Procedure: The molecules were diluted either in 90/10 (v/v) ultra-pure water/DMSO or in 50/50 (v/v) ultra-pure water/ethanol.
The reaction mechanism is as follows: HMG-CoA+2NADPH+2H^+ ? mevalonate+2NADP^++CoA-SH
Disappearance of the substrate NADPH (absorbing at 340 nm) is thus monitored over time.
In a first stage, the solutions need to be prepared from the Sigma® kit: • the 5× buffer supplied must be diluted to a concentration of 1× in ultra-pure water; • the NADPH is dissolved by adding 1× buffer, and then distributed in 100 μL tubes; • the starting enzyme solution is distributed in 25 μL aliquots.
The manipulations were performed directly in 96-well microplates (NUNC96 or [sequence]96). […]
After preparing the plate, the kinetic monitoring was performed in a microplate reader (BMG Labtech) over 16 minutes, 25 seconds, with values taken every 25 seconds at λ=340 nm, i.e. a total of 40 cycles. From this, the percentages of inhibition could be calculated.
In general, irrespective of the test, for a given concentration of an inhibitor, a curve of equation: absorbance=f(time) (in minutes) was prepared. […]
Depending on the types of tests, the percentages of inhibition of the various enzymes were calculated via various methods: • for the tests for inhibition of HMG-CoA reductase and of α-glucosidases, the calculation formula is identical: […]

Data set [2] concerns db/db mice. As to conditions: highest dose, same model of db/db mice and similar experimental design; cited from earlier work.
For data set [3] the following is noted: p<0.01; cited from earlier work.
Data set [4] concerns db/db mice. The data set can be described thus: Glycated hemoglobin HbA1c (Tests B). The class given is in vivo. As to conditions: six weeks in feed, mean ± SEM. The text has this:
(§1) Using this predictive model of diabetic mice and incorporating composition C10 directly into the rodents' feed (1% Chrysanthellum indicum, 1% Cynara scolymus, 0.1% Vaccinium myrtillus, 0.001% Piper nigrum and 0.6% Olea europaea of the feed), this makes it possible to ensure its “multi-target” efficacy and its large-scale use, since intravenous or intraperitoneal injections are limited to a small number of people, given their mode of administration.
(§2) The experimental time was seven weeks with a “run-in” of one week followed by six weeks of supplementation with composition C10. The male mice were six weeks old at the start of the treatment. The evaluations were made just before the supplementation (t=0), weekly for certain parameters, and at the end of supplementation (t=6 weeks). […]

Data set [5] relates to db/db mice. The data set can be described thus: Insulin sensitivity test (Tests B). The class given is in vivo. As to conditions: six weeks in feed, mean ± SEM. Here is the method:
For compositions C7 to C9, an insulin sensitivity test was also performed. […] The change in glycemia in response to the insulin injection was measured in the tail by biopsy just before the injection (t0) and then after 30, 60, 90 and 120 minutes. The area under the curve (AUC) was calculated. A decrease in the AUC reflects a better response to the insulin injection and thus an improvement in the insulin sensitivity. Conversely, an increase in the AUC reflects poorer insulin sensitivity and thus insulin resistance.
as §1, §2

In data set [6] the test system is db/db mice. The data set can be described thus: Body mass, fat mass and lean mass by MRI (Tests B). The class given is in vivo. As to conditions: six weeks in feed, mean ± SEM.
Text: as §1, §2

For data set [7], the system named is db/db mice. The data set can be described thus: Fasting glycemia (Tests B). The class given is in vivo. As to conditions: six weeks in feed, mean ± SEM.
Text: as §1, §2

The test system of data set [8] is db/db mice. The data set can be described thus: Hepatic and serum triglycerides, serum HDL cholesterol (Tests B). The class given is in vivo. As to conditions: six weeks in feed, mean ± SEM. The text has this: The experimental time was seven weeks with a “run-in” of one week followed by six weeks of supplementation with composition C10. The male mice were six weeks old at the start of the treatment. The evaluations were made just before the supplementation (t=0), weekly for certain parameters, and at the end of supplementation (t=6 weeks).
The experimental evaluations related especially to: • Measurement of the feed intake (t1, t2, t3, t4 and t5 weeks); • Measurement of the body mass (t0, t1, t2, t3, t4, t5, t6 weeks); • Measurement of the fat mass and lean mass by MRI (magnetic resonance imaging; t0 and t6 weeks); • Measurement of the fasting glycemia (t0, t1, t2, t3, t4, t5, t6 weeks); • Measurement of the glycated hemoglobin (HbA1c; t6 weeks); • The insulin sensitivity (test identical to that performed in Tests A; t0 and t6 weeks); • The carbohydrate tolerance (test identical to that performed in Tests A; t0 and t6 weeks); • Measurement of the hepatic and serum triglycerides (t6 weeks); • Measurement of the serum HDL cholesterol (t6 weeks).

The test system of data set [9] is db/db mice. The data set can be described thus: Body mass (Tests A). The class given is in vivo. As to conditions: after eight weeks in feed.
Procedure: (§3) The experiments were performed on db/db mice. db/db mice have a mutation of the leptin receptors inducing a cell signaling dysfunction of the latter. […] These mice are insulin resistant, hypertriglyceridemic and glucose-intolerant.
(§4) The evaluations presented were performed just before the supplementation (t=0) and at the end of supplementation (t=8 weeks).
The subject of data set [10] is db/db mice. The data set can be described thus: Fasting glycemia (Tests A). The class given is in vivo. As to conditions: Colby method.
Procedure: as §3, §4
The test system of data set [11] is db/db mice. The data set can be described thus: Oral test of carbohydrate tolerance, starch force-feeding (Tests A). The class given is in vivo. As to conditions: Colby method. Here is the method: The experiments were performed on db/db mice. db/db mice have a mutation of the leptin receptors inducing a cell signaling dysfunction of the latter. The leptin receptors are highly expressed in the hypothalamus. Mice having a mutation of these receptors cannot efficiently regulate their energy stores. […] These mice are insulin resistant, hypertriglyceridemic and glucose-intolerant. They constitute a pertinent and predictive model especially for studying insulin sensitivity, triglyceridemia, type 2 diabetes and one of its complications, non-alcoholic steatohepatitis (NASH) (Aileen J F King Br J Pharmacol 2012; 166(3):877-894; Sanches S C et al. Biomed Res Int 2015).
The experimental time was nine weeks with a “run-in” of one week followed by eight weeks of supplementation with the plant extracts and a composition X. The male mice were ten weeks old at the start of the treatment.
Nine compositions X were tested. […]
The experimental evaluations focused especially on: • Measurement of the body mass; • Measurement of the fasting glycemia; • The change in glycemia during an oral test of carbohydrate tolerance. After force-feeding with starch (3 g/kg) in the fasted state, the change in glycemia in response to starch was measured in the tail by biopsy just before the force-feeding (t0) and then after 30, 60, 90 and 120 minutes. The area under the curve (AUC) was calculated. […]

Regarding `CC[C@H](C)C(=O)O[C@H]1C[C@H](O)C=C2C=C[C@H](C)[C@H](CC[C@@H](O)C[C@@H](O)CC(=O)O)[C@H]21` [Pravastatin], in data set [1], the “% of inhibition HMG-CoA reductase” value came to 100% and the inhibition at 60 µg/mL is 100%.

Take `CSc1ccc(C(=O)/C=C/c2cc(C)c(OC(C)(C)C(=O)O)c(C)c2)cc1` [GFT 505, Elafibranor]: the HbA1c in data set [2] was 6%.

In the case of `CC[C@H]1[C@@H](O)[C@@H]2[C@H](CC[C@]3(C)[C@@H]([C@H](C)CCC(=O)O)CC[C@@H]23)[C@@]2(C)CC[C@@H](O)C[C@@H]12` [OCA, obeticholic acid], the “Reduction of circulating HDL cholesterol” value in data set [3] was -0.2 g/L.

Consider `CN(C)C(=N)N=C(N)N` [Metformin, metformin], for which the HbA1c in data set [4] is listed as 7.59 ± 0.24%. Also, the “Area under the curve measured during an test of insulin sensitivity (AUC)” value in [5] worked out at 32778 ± 3166 mg·min/dL. This compound showed a Body mass in [6] of 40.8 ± 2.1 g. The Fasting glycemia in data set [7] was determined as 474 ± 24 mg/dL. In addition, the Serum triglycerides in [8] worked out at 256.23 ± 28.19 mg/dL. In addition, the HDL cholesterol in data set [8] (serum) amounted to 99.21 ± 6.03 mg/dL.

Turning to `O=C(/C=C/C=C/c1ccc2c(c1)OCO2)N1CCCCC1` [Composition C5, piperine], the “Body mass (mean ± SEM)” value in data set [9] amounted to 32.7 ± 1.5 g. The “Observed degree of efficacy (in % of the control group), fasting glycemia after eight weeks of treatment” value in data set [10] is −13.3%. The “Observed degree of efficacy (in % of the control group), oral test of carbohydrate tolerance, AUC (week 8 − week 0)” value in data set [11] is recorded as −82.3%.
